Test system: HACAT cells
Test: In vitro cell proliferation test (MTT assay) on HACAT cells
Assay type: cell-based, human
Conditions: 48h, highest concentrations: Cocoa 16µg/mL, Zinc 4µg/mL
Excerpt: The MTT assay (3-(4,5-dimethylthiazol-2-yl)-2,5-diphenyltetrazolium bromide) is a colorimetric assay used to evaluate in vitro cell proliferation, as it allows to measure proliferation and cell viability through the evaluation of mitochondrial activity (Mosmann et al., 1983). This method is very useful to measure cell growth following treatment with mitogenic agents, antigenic stimuli, growth factors and for cytotoxicity studies. […] Formazan forms crystals, insoluble in the intracellular environment, to which the membranes are substantially impermeable: the molecule can therefore enter the cell, but the product cannot exit if it has been correctly metabolized, that is if the electron transport chains are still metabolically active. The formazan crystals are subsequently solubilized in dimethyl sulfoxide (DMSO), thus causing the solution to color change from yellow to dark blue-violet. The assay was carried out following the method by Mosmann (1983), with some minor modifications. […] The absorbance of the colored solution was measured using a spectrophotometric reader for microplates (BioTek Instruments Inc., BadFriedrichshall, Germany) at a wavelength of 570 nm (reference wavelength at 630 nm). The data were expressed as a percentage of cell viability compared to control cells (ctr), according to the following formula: % cell viability/ctr = (Abssample/Absctr)*100. […]

Zinc
cytotoxic activity on HACAT cells: significant (p<0.05) cytotoxic activity
